# According to patent US10745399B2 (priority 2015, dated 2020):
# Molecular target: PI3K p110β/p85α (human) (Homo sapiens (Human), UniProt P42338)
# Assay: PI3K p110β/p85α (human), non-radioactive assay (HTRF)
# Format: biochemical
# Settings: IC50 (ATM) at least 2000 times higher compared with IC50 (PI3Kbeta)
# Experimental: PI3K p110β/p85a (Human), Non-Radioactive Assay
# PI3K p110β/p85α (human) was incubated in an assay buffer comprising 10 μM phosphatidylinositol 4,5-bisphosphate and MgATP (concentration as necessary). The reaction was initiated by addition of MgATP solution. After an incubation time of 30 min at room temperature, the reaction was stopped by addition of a solution consisting of EDTA and biotinylated phosphatidylinositol 3,4,5-trisphosphate. Finally, the detection buffer, consisting of a europium-labelled anti-GST monoclonal antibody, a GST-labelled GRP1 PH domain and streptavidin allophycocyanin, was added. The plate was read out via homogeneous time-resolved fluorescence (HTRF) and the corresponding signals were evaluated via the formula HTRF=10000×(Em665 nm/Em620 nm).
# Sequence of PI3K p110β/p85α (human) (P42338 whole entry): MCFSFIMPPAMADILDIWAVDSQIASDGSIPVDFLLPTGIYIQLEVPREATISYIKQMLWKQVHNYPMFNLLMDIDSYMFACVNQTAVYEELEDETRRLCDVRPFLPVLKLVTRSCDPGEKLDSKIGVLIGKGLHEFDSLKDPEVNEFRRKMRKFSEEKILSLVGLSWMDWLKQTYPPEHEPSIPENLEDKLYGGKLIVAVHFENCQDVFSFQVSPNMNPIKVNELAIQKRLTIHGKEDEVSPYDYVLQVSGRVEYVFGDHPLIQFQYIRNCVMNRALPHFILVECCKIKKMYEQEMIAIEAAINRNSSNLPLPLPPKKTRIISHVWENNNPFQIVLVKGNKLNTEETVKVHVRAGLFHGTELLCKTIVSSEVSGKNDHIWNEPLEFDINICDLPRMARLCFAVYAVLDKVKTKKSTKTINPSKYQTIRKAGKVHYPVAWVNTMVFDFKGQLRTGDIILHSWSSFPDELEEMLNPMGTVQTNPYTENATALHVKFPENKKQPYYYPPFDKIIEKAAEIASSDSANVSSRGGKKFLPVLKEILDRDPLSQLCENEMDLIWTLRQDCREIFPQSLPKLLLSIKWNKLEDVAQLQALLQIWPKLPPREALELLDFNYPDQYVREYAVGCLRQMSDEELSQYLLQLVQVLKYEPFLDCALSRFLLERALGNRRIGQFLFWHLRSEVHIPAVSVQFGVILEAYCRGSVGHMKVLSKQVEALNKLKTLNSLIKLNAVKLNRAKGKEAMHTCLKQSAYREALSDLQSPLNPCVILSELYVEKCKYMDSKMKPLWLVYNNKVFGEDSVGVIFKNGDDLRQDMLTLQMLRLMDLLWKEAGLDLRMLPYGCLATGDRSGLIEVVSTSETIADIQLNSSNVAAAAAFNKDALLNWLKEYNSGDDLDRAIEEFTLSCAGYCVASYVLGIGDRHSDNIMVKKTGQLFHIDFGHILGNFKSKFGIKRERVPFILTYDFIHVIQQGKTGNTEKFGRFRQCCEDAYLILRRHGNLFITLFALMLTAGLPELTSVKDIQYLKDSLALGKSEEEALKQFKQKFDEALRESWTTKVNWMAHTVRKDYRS
# Sequence of PI3K p110β/p85α (human) (P27986 whole entry partner): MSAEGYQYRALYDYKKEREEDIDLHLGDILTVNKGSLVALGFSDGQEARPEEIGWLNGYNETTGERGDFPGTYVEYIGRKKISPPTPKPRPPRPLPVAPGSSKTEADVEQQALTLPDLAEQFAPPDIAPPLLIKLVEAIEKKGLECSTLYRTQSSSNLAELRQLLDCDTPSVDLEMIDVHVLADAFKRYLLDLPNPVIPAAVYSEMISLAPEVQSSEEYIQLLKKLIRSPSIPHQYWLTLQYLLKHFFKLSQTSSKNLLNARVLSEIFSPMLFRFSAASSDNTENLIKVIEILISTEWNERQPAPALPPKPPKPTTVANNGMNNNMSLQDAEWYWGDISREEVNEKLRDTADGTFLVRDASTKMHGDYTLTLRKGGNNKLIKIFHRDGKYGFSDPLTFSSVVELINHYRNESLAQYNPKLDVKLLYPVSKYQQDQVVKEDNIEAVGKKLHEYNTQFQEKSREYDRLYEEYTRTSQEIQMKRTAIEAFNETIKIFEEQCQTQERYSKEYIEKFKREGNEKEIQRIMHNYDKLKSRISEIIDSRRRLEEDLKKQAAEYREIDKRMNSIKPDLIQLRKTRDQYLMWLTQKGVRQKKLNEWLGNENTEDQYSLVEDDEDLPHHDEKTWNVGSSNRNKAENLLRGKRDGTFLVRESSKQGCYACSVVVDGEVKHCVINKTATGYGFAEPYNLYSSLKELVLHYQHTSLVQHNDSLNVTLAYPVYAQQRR
row,SMILES,"ratio IC50 (ATM):IC50(PI3Kbeta), selectivity with respect to PI3Kbeta"
1,"COc1ccc(-c2cc3c(cc2OC)ncc2c3n(-c3c(F)cncc3OC)c(=O)n2C)cn1 [compound 137, 1-(3-Fluoro-5-methoxy-pyridin-4-yl)-7-methoxy-8-(6-methoxypyridin-3-yl)-3-methyl-1,3-dihydroimidazo-[4,5-c]quinolin-2-one]",at least 2000 times

# System: CHK2 phosphorylation (phospho-Thr68) in HCT116 cells
# Assay: Cellular pCHK2 assay, bleomycin-induced phosphorylation of CHK2 (phospho-Thr68), immunofluorescence high content
# Format: cell-based
# Settings: Homo sapiens, HCT-116; HCT116 cells, 10 μM bleomycin, 4 h; read-out: IC50 (pCHK2)
# From the text: For the identification of substances which inhibit the phosphorylation of the protein kinase CHK2 at the amino acid threonine 68, an immunofluorescence-based “high content” analysis assay was used in HCT116 cells.
# In vitro cell-based immunofluorescence assay for the identification of inhibitors of bleomycin-induced phosphorylation of CHK2 (phospho-Thr68) in the human colon carcinoma cell line HCT116:
# HCT116 cells are sown out in a defined cell density in 384-well plates in culture medium (DMEM high glucose, 2 mM GlutaMax, 1 mM Na pyruvate, 10% FCS) and incubated overnight at 37° C. and 10% of CO2. On the following day, the test substances are added in a defined concentration range (1 nM to 30 μM) in combination with 10 μM bleomycin, where the concentration of the solvent DMSO is kept constant at 0.5%. After incubation for four hours at 37° C. and 10% of CO2, the cells are fixed (5 min, 4% formaldehyde in PBS), permeabilised (10 min, 0.2% Triton X-100 in PBS) and, after blocking of nonspecific binding sites (10% goat serum, 1% BSA in PBS), incubated overnight at 4° C. with a specific anti-pCHK2 antibody (cell signalling #2661). pCHK2 (Thr68) is determined using an Alexa488-labelled secondary anti-rabbit IgG antibody. Parallel staining of DNA with propidium iodide enables determination of the cell count. The pCHK2 signal is detected using a high-content imager (Molecular Devices IMX Ultra) and automatic image analysis using the MetaXpress software belonging to the instrument. The number of cell nuclei which have a pCHK2 signal above a defined background is determined.
row,SMILES,IC50
1,"COc1ccc(-c2cc3c(cc2OC)ncc2c3n(-c3c(F)cncc3OC)c(=O)n2C)cn1 [compound 137, 1-(3-Fluoro-5-methoxy-pyridin-4-yl)-7-methoxy-8-(6-methoxypyridin-3-yl)-3-methyl-1,3-dihydroimidazo-[4,5-c]quinolin-2-one]",200 to 1000 nM
2,"COc1cc2ncc3c(c2cc1-c1cnn(C)n1)n(-c1c(C)cncc1F)c(=O)n3C [compound 103, 1-(3-Fluoro-5-methylpyridin-4-yl)-7-methoxy-3-methyl-8-(2-methyl-2H-1,2,3-triazol-4-yl)-1,3-dihydroimidazo-[4,5-c]quinolin-2-one]",200 to 1000 nM

# Molecular target: human recombinant ATM (Homo sapiens (Human), UniProt Q13315)
# Sequence (Q13315 whole entry): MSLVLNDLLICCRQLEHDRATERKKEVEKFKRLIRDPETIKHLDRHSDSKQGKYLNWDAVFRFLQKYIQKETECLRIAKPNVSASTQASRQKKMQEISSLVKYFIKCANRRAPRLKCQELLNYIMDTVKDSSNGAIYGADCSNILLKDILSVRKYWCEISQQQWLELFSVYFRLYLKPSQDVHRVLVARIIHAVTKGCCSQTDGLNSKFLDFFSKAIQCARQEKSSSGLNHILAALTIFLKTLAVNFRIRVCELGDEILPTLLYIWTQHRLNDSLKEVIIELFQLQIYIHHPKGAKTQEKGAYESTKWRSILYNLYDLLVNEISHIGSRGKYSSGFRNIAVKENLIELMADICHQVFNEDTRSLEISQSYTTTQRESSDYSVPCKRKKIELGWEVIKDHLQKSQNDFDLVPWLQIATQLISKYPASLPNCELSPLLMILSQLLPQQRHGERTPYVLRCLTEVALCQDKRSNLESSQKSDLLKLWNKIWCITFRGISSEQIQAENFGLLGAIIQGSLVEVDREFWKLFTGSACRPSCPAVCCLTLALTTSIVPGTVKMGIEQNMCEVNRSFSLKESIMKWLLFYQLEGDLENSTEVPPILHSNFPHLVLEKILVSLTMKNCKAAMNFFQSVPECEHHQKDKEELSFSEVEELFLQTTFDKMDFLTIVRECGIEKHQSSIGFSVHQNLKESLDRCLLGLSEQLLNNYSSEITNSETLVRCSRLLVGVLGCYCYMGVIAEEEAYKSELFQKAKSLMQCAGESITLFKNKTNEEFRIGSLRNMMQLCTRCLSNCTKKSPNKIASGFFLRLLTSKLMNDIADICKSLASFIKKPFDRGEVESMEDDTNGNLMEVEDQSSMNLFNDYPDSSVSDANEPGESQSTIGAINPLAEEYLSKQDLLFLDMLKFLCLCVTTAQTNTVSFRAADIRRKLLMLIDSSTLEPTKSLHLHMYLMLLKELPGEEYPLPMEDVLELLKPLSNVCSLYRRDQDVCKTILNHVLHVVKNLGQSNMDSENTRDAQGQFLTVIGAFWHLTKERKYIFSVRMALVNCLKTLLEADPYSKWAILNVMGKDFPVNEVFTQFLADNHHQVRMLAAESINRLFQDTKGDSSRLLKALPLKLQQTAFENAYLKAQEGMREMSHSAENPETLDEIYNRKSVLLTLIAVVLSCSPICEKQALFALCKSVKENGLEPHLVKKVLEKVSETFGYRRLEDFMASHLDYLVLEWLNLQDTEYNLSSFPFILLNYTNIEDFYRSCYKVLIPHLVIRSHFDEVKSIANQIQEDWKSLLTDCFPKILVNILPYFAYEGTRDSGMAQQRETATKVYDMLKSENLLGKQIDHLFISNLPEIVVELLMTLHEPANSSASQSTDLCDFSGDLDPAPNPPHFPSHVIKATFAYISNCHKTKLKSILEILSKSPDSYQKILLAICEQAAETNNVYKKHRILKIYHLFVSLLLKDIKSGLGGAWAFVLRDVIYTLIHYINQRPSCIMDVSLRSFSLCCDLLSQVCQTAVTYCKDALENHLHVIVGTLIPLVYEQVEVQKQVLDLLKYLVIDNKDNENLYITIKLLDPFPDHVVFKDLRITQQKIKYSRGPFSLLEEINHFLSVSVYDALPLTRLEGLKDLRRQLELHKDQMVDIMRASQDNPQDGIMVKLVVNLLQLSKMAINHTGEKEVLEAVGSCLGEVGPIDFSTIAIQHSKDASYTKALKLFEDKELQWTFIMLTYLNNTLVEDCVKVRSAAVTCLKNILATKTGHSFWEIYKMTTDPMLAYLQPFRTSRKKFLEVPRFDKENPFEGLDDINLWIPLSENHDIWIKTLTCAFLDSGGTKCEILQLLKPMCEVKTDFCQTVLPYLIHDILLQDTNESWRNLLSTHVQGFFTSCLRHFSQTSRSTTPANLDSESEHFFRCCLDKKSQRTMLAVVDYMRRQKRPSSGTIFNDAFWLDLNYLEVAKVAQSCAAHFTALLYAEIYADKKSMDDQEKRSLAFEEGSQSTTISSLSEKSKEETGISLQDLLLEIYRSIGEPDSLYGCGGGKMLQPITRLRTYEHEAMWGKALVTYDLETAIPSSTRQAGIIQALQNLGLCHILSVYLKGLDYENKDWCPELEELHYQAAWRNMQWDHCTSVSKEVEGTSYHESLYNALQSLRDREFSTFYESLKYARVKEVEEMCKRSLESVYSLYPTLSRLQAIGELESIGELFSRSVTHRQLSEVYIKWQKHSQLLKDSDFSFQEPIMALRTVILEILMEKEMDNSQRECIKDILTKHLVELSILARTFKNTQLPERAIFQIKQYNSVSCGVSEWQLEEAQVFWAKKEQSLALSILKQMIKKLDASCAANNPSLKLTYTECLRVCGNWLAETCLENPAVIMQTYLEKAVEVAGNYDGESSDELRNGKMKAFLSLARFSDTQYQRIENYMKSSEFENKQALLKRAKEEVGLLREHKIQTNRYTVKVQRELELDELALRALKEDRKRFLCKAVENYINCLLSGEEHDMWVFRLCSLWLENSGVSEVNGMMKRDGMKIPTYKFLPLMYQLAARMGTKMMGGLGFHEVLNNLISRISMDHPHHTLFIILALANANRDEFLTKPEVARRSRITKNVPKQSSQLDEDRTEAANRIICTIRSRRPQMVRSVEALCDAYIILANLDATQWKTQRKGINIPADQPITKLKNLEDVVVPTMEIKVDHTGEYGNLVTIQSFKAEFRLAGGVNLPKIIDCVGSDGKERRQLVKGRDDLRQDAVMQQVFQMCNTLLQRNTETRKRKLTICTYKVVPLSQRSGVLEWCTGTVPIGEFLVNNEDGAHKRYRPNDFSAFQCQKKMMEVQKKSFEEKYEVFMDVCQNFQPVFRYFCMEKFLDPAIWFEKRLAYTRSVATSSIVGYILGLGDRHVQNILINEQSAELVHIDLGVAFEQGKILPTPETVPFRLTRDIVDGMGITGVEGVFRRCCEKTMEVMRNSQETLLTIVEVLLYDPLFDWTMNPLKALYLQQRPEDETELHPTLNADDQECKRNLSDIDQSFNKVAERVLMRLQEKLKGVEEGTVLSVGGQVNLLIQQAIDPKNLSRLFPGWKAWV
# Assay: ATM kinase assay (IC50 ATM), TR-FRET
# Format: biochemical
# Settings: 10 μM ATP, p53 substrate
# Experimental: ATM Kinase Assay—Determination of ATM Inhibition (IC50 ATM):
# The IC50 value was determined with the aid of a biochemical ATM kinase assay. The assay consists of two steps: the enzymatic reaction and the detection step. Firstly, ATM (ataxia telangiectasia mutated) protein and the test substance are incubated at different concentrations with addition of substrate protein p53 and ATP. ATM mediates the phosphorylation of p53 at several positions, including at amino acid S15. The amount of phosphorylated p53 is determined with the aid of specific antibodies and the TR-FRET technique. The enzymatic ATM assay is carried out as TR-FRET (HTRF™, Cisbio Bioassays) based 384-well assay. In the first step, purified human recombinant ATM (human ATM, full length, GenBank ID NM_000051, expressed in a mammal cell line) is incubated in assay buffer for 15 minutes with the ATM inhibitor in various concentrations and without test substance as negative or neutral control. The assay buffer comprises 25 mM HEPES pH 8.0, 10 mM Mg(CH3COO)2, 1 mM MnCl2, 0.1% BSA and 0.01% Brij® 35, 5 mM dithiothreitol (DTT). […] In the second step, purified human recombinant cmyc-labelled p53 (human p53, full length, GenBank ID BC003596, expressed in Sf21 insect cells) and ATP are added, and the reaction mixture is incubated at 22° C. for 30-35 minutes. The pharmacologically relevant assay volume is 5 μl. […] The enzymatic reaction is stopped by addition of EDTA. […] After incubation, usually for 2 hours (between 1.5 and 15 h), for signal development, the plates are analysed in a plate reader (EnVision, PerkinElmer) using TRF mode (and with laser excitation). […] The measurement data were processed by means of Genedata Screener software. IC50 determinations are carried out, in particular, by fitting a dose/action curve to the data points by means of nonlinear regression analysis.
row,IC50,SMILES
1,< 1 nM,"COc1cc2ncc3c(c2cc1-c1cnn(C)c1)n(-c1ncc(F)cc1F)c(=O)n3C [Compound Example 1, 1-(3,5-Difluoropyridin-2-yl)-7-methoxy-3-methyl-8-(1-methyl-1H-pyrazol-4-yl)-1,3-dihydroimidazo[4,5-c] quinolin-2-one]"
2,< 1 nM,"COc1cc2ncc3c(c2cc1-c1cnn(C)c1)n(-c1ncc(OCCO)cc1F)c(=O)n3C [compound 67, 1-[3-Fluoro-5-(2-hydroxy-ethoxy)-2-pyridyl]-7-methoxy-3-methyl-8-(1-methylpyrazol-4-yl)imidazo-[4,5-c]quinolin-2-one]"
3,< 50 nM,"COc1cc2ncc3c(c2cc1-c1cnn(C)n1)n(-c1c(C)cncc1F)c(=O)n3C [compound 103, 1-(3-Fluoro-5-methylpyridin-4-yl)-7-methoxy-3-methyl-8-(2-methyl-2H-1,2,3-triazol-4-yl)-1,3-dihydroimidazo-[4,5-c]quinolin-2-one]"

# Molecular target: mTOR (human) (Homo sapiens (Human), UniProt P42345)
# Assay: mTOR (human) radiometric kinase assay
# Format: biochemical
# Settings: IC50 (ATM) at least 2000 times higher compared with IC50 (mTOR)
# Experimental: mTOR (human) was incubated with 50 mM HEPES pH 7.5, 1 mM EGTA, 0.01% Tween 20, 2 mg/ml of the substrate, 3 mM MnCl2 and [γ-^33P-ATP] (specific activity approximately 500 cpm/pmol, concentration as necessary). The reaction was initiated by addition of MgATP solution. After incubation at room temperature for 40 minutes, the reaction was stopped by addition of 3% phosphoric acid. 10 μl of the reaction solution were then transferred dropwise onto a P30 filtermat and washed three times for 5 min in 75 mM phosphoric acid and once in methanol, dried and evaluated by means of liquid scintillation counting.
row,SMILES,"ratio IC50 (ATM):IC50(mTOR), selectivity with respect to mTOR"
1,"CNC(=O)c1cnc(-n2c(=O)n(C)c3cnc4cc(OC)c(-c5cnn(C)c5)cc4c32)c(F)c1 [compound 138, 5-Fluoro-6-[7-methoxy-3-methyl-8-(1-methyl-1H-pyrazol-4-yl)-2-oxo-2,3-dihydroimidazo[4,5-c]-quinolin-1-yl]-N-methyl-nicotinamid]",at least 2000 times
2,"CCc1cnccc1-n1c(=O)n(C)c2cnc3cc(OC)c(-c4cnn(CC)c4)cc3c21 [compound 157, 8-(1-Ethyl-1H-pyrazol-4-yl)-1-(3-ethylpyridin-4-yl)-7-methoxy-3-methyl-1,3-dihydroimidazo[4,5-c] quinolin-2-one]",at least 2000 times
3,"COc1ccc(-c2cc3c(cc2OC)ncc2c3n(-c3cn(C)nc3F)c(=O)n2C)cn1 [compound 159, 1-(3-Fluoro-1-methyl-1H-pyrazol-4-yl)-7-methoxy-8-(6-methoxypyridin-3-yl)-3-methyl-1,3-dihydroimidazo-[4,5-c]quinolin-2-one]",at least 2000 times
4,"COc1cc2ncc3c(c2cc1-c1cnn(C)c1)n(-c1cn(C)nc1F)c(=O)n3C [compound 141, 1-(3-Fluoro-1-methyl-1H-pyrazol-4-yl)-7-methoxy-3-methyl-8-(1-methyl-1H-pyrazol-4-yl)-1,3-dihydro-imidazo[4,5-c]quinolin-2-one]",at least 2000 times

# Next, values leading:
row,"ratio IC50 (ATM):IC50(mTOR), selectivity with respect to mTOR",SMILES
1,at least 2000 times,"COc1cc2ncc3c(c2cc1-c1cn(C)nc1C)n(-c1c(F)cncc1OC(F)F)c(=O)n3C [compound 147, 1-(3-Difluoromethoxy-5-fluoropyridin-4-yl)-8-(1,3-dimethyl-1H-pyrazol-4-yl)-7-methoxy-3-methyl-1,3-dihydroimidazo[4,5-c]-quinolin-2-one]"
2,at least 2000 times,"COc1cc2ncc3c(c2cc1-c1ccc2nc(C)[nH]c2c1)n(-c1c(F)cncc1OC)c(=O)n3C [compound 136, 1-(3-Fluoro-5-methoxy-pyridin-4-yl)-7-methoxy-3-methyl-8-(2-methyl-3H-benzoimidazol-5-yl)-1,3-dihydroimidazo[4,5-c]-quinolin-2-one]"
3,at least 2000 times,"COc1cc2ncc3c(c2cc1-c1cnn(C)c1)n(-c1ncc(OC(F)F)cc1F)c(=O)n3C [compound 114, 1-(5-Difluoromethoxy-3-fluoropyridin-2-yl)-7-methoxy-3-methyl-8-(1-methyl-1H-pyrazol-4-yl)-1,3-dihydroimidazo[4,5-c]-quinolin-2-one]"
4,at least 2000 times,"CCc1cncc(F)c1-n1c(=O)n(C)c2cnc3cc(OC)c(-c4cn(C)nn4)cc3c21 [compound 126, 1-(3-Ethyl-5-fluoropyridin-4-yl)-7-methoxy-3-methyl-8-(1-methyl-1H-1,2,3-triazol-4-yl)-1,3-dihydroimidazo-[4,5-c]quinolin-2-one]"
5,at least 2000 times,"COc1cc2ncc3c(c2cc1-c1cc[nH]n1)n(-c1cn(C)nc1C)c(=O)n3C [compound 121, 1-(1,3-Dimethyl-1H-pyrazol-4-yl)-7-methoxy-3-methyl-8-(1H-pyrazol-3-yl)-1,3-dihydroimidazo[4,5-c]-quinolin-2-one]"
6,at least 2000 times,"COc1cnc(-n2c(=O)n(C)c3cnc4cc(OC)c(-c5c[nH]nc5C)cc4c32)c(F)c1 [compound 122, 1-(3-Fluoro-5-methoxy-pyridin-2-yl)-7-methoxy-3-methyl-8-(3-methyl-1H-pyrazol-4-yl)-1,3-dihydro-imidazo[4,5-c]quinolin-2-one]"
